Patent US10980769B2, “Tiglien-3-one derivatives” (QBIOTICS PTY LTD, priority 2005, dated 2021)

Key:
Bacillus subtilis = assay: ProTOX (Bs) antibacterial bioassay; type: cell-based
Source text: ProTOX, (alternatively referred to herein as Bs) is an antibacterial bioassay, broadly applicable to most aerobic and anaerobic bacteria. The bioassay features a solid phase agar base into which the test compound has been incorporated together with a chromogen. As the bacteria multiply in the well, the chromogen is metabolised from blue in a two-step process to a colourless compound. Compounds with potent bactericidal activity inhibit bacterial metabolism of the chromogen while bacteriostatic compounds induce limited metabolism as indicated by an intermediate pink colour. ProTOX is broadly applicable to a range of gram-positive and gram-negative bacteria under aerobic and microaerophilic conditions. ProTOX assays were carried out using Bacillus subtilis.
Briefly, in ProTOX, the bacteria (24 hour broth) were applied to the surface of an agar matrix containing the test sample and allowed to grow for 48 hours. The assay was monitored at 24 and 48 hours and the active wells noted. Known antibiotics yield consistent colour transitions which are concentration and time dependent. These patterns provide an important guide to the early recognition of interesting characteristics.

D04 melanoma = assay: Growth inhibition of cultured cells; type: cell-based; details: human melanoma DO4
Procedure: (§1) Briefly, a range of tumour cells including mouse melanoma, human melanoma, mouse squamous cell carcinoma, human breast, human colon, human leukemia and human lung and normal human cells including normal human fibroblasts were seeded at 2-5,000 per microtitre well (96-well plate) in 10% FCS-RPMI 1640 culture medium, treated, and allowed to grow until the controls were nearly confluent (5-6 days). The wells were then washed twice with PBS, fix with ethanol for a minimum of 5 minutes and washed with water. SRB solution (50 μL of 0.4% in 1% acetic acid) was added and left at room temperature for a minimum of 15 minutes. The plate was washed rapidly with tap water and then twice with 1% acetic acid. After addition of 100 μL/well of 10 mM Tris base (unbuffered, pH>9), plates were left for a minimum of 5 minutes, then the absorbance was read at 564 nm on the ELISA reader, with a 3 second prior shaking. After subtraction of a blank (wells with no cells, absorbance typically about 0.04), growth inhibition was calculated as % of the untreated control and plotted against dose.
(§2) Briefly, a suspension of a range of tumour cells including mouse melanoma, human melanoma, mouse squamous cell carcinoma, human breast, human colon, human leukemia and human lung and normal human cells including normal human fibroblasts were seeded into round-bottom microtitre plates in 10% FCS-RPMI 1640 culture medium, treated and allowed to grow for 5-6 days. To measure cell growth, 20 μL of a combined MTS/PMS solution (Promega Cell ProliferationAssay Kit Cat #G5430) was added to each well of the 96 well assay plate. After 1-4 hours the plates were placed in the ELISA plate reader and the absorbance read at 490 nm. After subtraction of a blank (wells with no cells, absorbance typically about 0.4), growth inhibition was calculated as % of the untreated control and plotted against dose.
(§3) For growth inhibition assays, cells (2000-5000/well) were seeded in 96-well plates in duplicate, treated with drug next day and allowed to grow for a further 5-6 days. The plates were then washed in PBS (phosphate buffered saline, pH 7.2), fixed with ethanol and stained by addition of 50 μL 0.4% SRB (sulforhodamine) in 1% acetic acid. The plate was left at room temperature for a minimum of 15 minutes, then washed rapidly with tap water and then twice with 1% acetic acid. After addition of 100 μL/well of 10 mM Tris base (unbuffered, pH>9), plates were left for a minimum of 5 minutes, then the absorbance was read at 564 nm on the ELISA reader, with a 3 second prior shaking. After subtraction of a blank (wells with no cells, typically about 0.04), growth inhibition was calculated as % of the untreated control and plotted against dose.

HOP62 lung = assay: Growth inhibition of cultured cells; type: cell-based; details: human lung H0P62
Procedure: as §1, §2, §3

human breast MCF-7 = assay: Growth inhibition of cultured cells; type: cell-based; details: human breast CF-7
Procedure: as §1, §2, §3

human colon Colo205 = assay: Growth inhibition of cultured cells; type: cell-based
Procedure: as §1, §2, §3

human leukemia K562 = assay: Growth inhibition of cultured cells; type: cell-based
Procedure: as §1, §2, §3

human leukemia U937 = assay: Growth inhibition of cultured cells; type: cell-based
Procedure: as §1, §2, §3

human lung A549 = assay: Growth inhibition of cultured cells; type: cell-based
Procedure: as §1, §2, §3

human melanoma MM127 = assay: Growth inhibition of cultured cells; type: cell-based
Procedure: as §1, §2, §3

human melanoma MM96L = assay: Growth inhibition of cultured cells; type: cell-based
Procedure: as §1, §2, §3

[1] = tested on: normal human fibroblasts (NFF); assay: Growth inhibition of cultured cells; type: cell-based
Procedure: as §1, §2, §3

B16 mouse melanoma = assay: Topical treatment of B16 melanoma tumours in C57BL/6 mice; type: in vivo
Procedure: Tumour cells were injected subcutaneously (2 million cells/site in 50 μL culture medium for LK2 cells, 0.5 million for B16) into 4 sites each on the flanks of nude mice (for LK2 cells) or C57BL/6 mice (B16 mouse melanoma cells). When tumours became visible (2-4 mm diameter) five to 10 days after injection of cells, 37 μg of EBI-46 in 25 μL, of isopropanol gel was applied to each tumour site, each day for 3 days. Tumour size was measured with calipers at appropriate intervals.
Animal experiments were conducted under Queensland Institute of Medical Research (QIMR) Animal Ethics Committee approvals. The B16 mouse melanoma model was obtained by injecting 0.5 million B16 mouse melanoma cells subcutaneously into each of the 2 flanks of a male C57BL/6 mouse. The human tumour xenografts were obtained by injecting 2 million of the respective tumour cell line into each of 4 sites on the flanks of male nude mice (BALB/c background). EBI-46 was applied: (a) topically by dilution of a concentrated solution in acetone into an isopropanol gel, once a day for 3 days; (b) intralesionally by injection into the tumour of drug dissolved in 25% propylene glycol-0.1 M saline, (c) systemically by injection intraperitoneally in 25% propylene glycol in 0.1 M saline. Tumour size was measured with electronic callipers in mm and converted to volume (cubic mm) using the formula: Tumour volume=length×breadth×breadth/2. Results
Topical application of EBI-46 in an isopropanol gel was carried out on the aggressive B16 mouse melanoma in its natural (syngeneic) host, C57BL/6 mice (0.5 million tumour cells injected per site).
The frequency (1 daily dose for 3 days only) and dose level for topical application of PKC activators was selected on the basis of in vitro activity on cell lines. The materials were dissolved in acetone and diluted into an isopropanol gel for topical application.
The aggressive and rapidly growing B16 mouse melanoma is recognised as a very stringent tumour model in which to test anticancer agents. Stringency was further increased by injecting at least 10× more tumour cells than the minimum required to form a tumour in the animal. […] Such tumours could be distinguished from subcutaneous tumours by their immobility when the skin was pulled around the body of the animal.

[2] = topical, approximately 150 μg/site

How did the “Bs Titre” value (Bacillus subtilis) turn out when `C/C=C(\C)C(=O)OC1C(C)C2(O)C(C3OC3(CO)C(O)C3(O)C(=O)C(C)=CC32)C2C(C)(C)C12OC(=O)C(C)CC` (stereo not drawn) [EBI-46, 12-tigloyl-13-(2-methylbutanoyl)-6,7-epoxy-4,5,9,12,13,20-hexahydroxy-1-tiglian-3-one] was run?
Its value is 1.

What about the “Bs LD99” value (Bacillus subtilis; Table 6a, last well with activity, real value may be lower) of the same molecule?
The value was 50 pg/mL.

And the “Concentration of EBI-46 at which growth inhibition was observed” value (D04 melanoma)?
Its value is less than 100 ng/mL.

And the “Concentration of EBI-46 at which growth inhibition was observed” value (HOP62 lung)?
Its value is less than 100 ng/mL.

And the “Concentration of EBI-46 at which growth inhibition was observed” value (human breast MCF-7)?
Its value is less than 100 ng/mL.

What about the “Concentration of EBI-46 at which growth inhibition was observed” value (human colon Colo205) of the same molecule?
Its value is less than 100 ng/mL.

And the “Concentration of EBI-46 at which growth inhibition was observed” value (human leukemia K562)?
Its value is less than 100 ng/mL.

And the “Concentration of EBI-46 at which growth inhibition was observed” value (human leukemia U937)?
The value was less than 100 ng/mL.

What about the “Concentration of EBI-46 at which growth inhibition was observed” value (human lung A549) of the same molecule?
The value was less than 100 ng/mL.

What about the “Concentration of EBI-46 at which growth inhibition was observed” value (human melanoma MM127) of the same molecule?
The value was less than 100 ng/mL.

What about the “Concentration of EBI-46 at which growth inhibition was observed” value (human melanoma MM96L) of the same molecule?
The value was “=/<2 μg/mL”.

What about the “Concentration of EBI-46 at which growth inhibition was observed” value [1] of the same molecule?
The value was “None observed at 10 μg/mL”.

And the “systemic toxicity or lung metastases on post mortem” value (B16 mouse melanoma; topical 37 μg per site once a day for 3 days)?
The value was “There were no signs of”.

What about the tumour growth (B16 mouse melanoma; topical 37 μg per site once a day for 3 days starting at day 5) of the same molecule?
Its tumour growth is “inhibition of tumour growth”.

What about the inflammatory response (B16 mouse melanoma; [2]) of the same molecule?
The inflammatory response was “mild”.

What about the “systemic toxicity or lung metastases” value (B16 mouse melanoma; [2]) of the same molecule?
Its value is “no sign of systemic toxicity or lung metastases”.

And the tumour sites cured (B16 mouse melanoma; [2])?
The tumour sites cured was “one site apparently cured”.

What about the tumour response (B16 mouse melanoma; topical, approximately 150 μg/site, 1 daily dose for 3 days) of the same molecule?
The tumour response was “good response”.
